The values that follow come from patent US20170320837A1, “METHOD FOR TREATING INFLAMMATORY DISORDERS” (Synta Pharmaceuticals Corp., priority 2006, published 2017).

One experiment concerns the target T1, glucocorticoid receptors (Homo sapiens, UniProt P04150).
T1 construct: endogenous in cells; host or cells: HeLa S3
T1 sequence (P04150 1-777): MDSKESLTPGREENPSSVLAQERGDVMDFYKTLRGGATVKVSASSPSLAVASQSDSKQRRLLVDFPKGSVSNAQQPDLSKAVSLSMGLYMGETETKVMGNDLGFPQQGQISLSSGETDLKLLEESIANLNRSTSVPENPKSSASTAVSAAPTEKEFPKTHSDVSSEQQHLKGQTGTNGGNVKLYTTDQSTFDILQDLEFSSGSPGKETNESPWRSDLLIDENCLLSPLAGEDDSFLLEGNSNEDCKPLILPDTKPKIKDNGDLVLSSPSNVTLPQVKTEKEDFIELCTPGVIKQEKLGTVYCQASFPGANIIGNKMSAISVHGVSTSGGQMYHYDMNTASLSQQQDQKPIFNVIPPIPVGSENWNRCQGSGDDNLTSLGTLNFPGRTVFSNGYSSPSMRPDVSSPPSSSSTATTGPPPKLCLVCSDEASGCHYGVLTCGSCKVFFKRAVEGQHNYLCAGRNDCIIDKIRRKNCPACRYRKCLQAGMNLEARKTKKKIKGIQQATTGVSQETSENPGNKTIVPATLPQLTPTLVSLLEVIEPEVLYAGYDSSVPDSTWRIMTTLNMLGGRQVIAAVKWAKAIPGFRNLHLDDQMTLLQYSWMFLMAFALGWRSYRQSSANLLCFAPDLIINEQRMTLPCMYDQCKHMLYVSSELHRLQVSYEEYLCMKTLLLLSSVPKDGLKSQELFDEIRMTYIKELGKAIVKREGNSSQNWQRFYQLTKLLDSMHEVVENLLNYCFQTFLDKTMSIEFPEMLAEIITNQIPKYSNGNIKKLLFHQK
The experiment in a line: Competitive binding assay with tritium labeled dexamethason in Hela S3 cells (legend of FIG. 3).

For experiment [1], the system named is glucocorticoid receptor. In words: Glucocorticoid receptor levels in human PBMCs, renal cells and cancer cell lines, immunoblot (Example 115). In kind it is cell-based. The protocol:
Normal human renal proximal tubule epithelial cells and tumor cell lines of MV-4-11, Kasumi-1, and Hela were obtained from Cambrex Bioproducts and American Type Culture Collection, respectively. Cells were cultured with 10% fetal bovine serum/DMEM.
The whole blood samples from healthy human volunteer were collected and the PBMCs were isolated immediately as described in Example 116. Isolated human PBMCs were cultured in 10% fetal bovine serum/DMEM.
Human PBMCs, kasumi-1, My-4-11, Hela, and human renal proximal tubule epithelial cells were treated with DMSO (control), Compound 226, Compound 287, 17-DMAG at concentrations of 0, 5, 25, or 100 nM (in DMSO) for 16 hours. The cells were then collected and rinsed in ice-cold PBS and stored in liquid nitrogen until further analysis.
(§1) PBMC, renal and tumor cell pellets were prepared in Western lysis buffer (10 mmol/L HEPES, 42 mmol/L KCl, 5 mmol/L MgCl2, 0.1 mmol/L EDTA, 0.1. mmol/LEGTA, 1 mmol/L DTT, 1% Triton X-100, freshly supplemented with 1× protease inhibitor cocktail from Pierce, Rockford, Ill.). Lysate protein concentrations were quantified by bicinchoninic acid assay (Pierce) and normalized. Equal amounts of protein were loaded onto 10% NuPAGE Bis-Tris Gels (Invitrogen) and subsequently transferred onto polyvinylidene difluoride membranes. The membranes were blocked in 5% milk in TBST. Primary antibody of glucocorticoid receptor from Santa Cruz Biotechnology, Inc. was added and incubated at room temperature for 1 hour with shaking. The blots were washed extensively in TBST before secondary antibodies were added for overnight incubation at 4° C. with gentle shaking. The blots were again washed extensively and developed with SuperSignal West Femto substrate (Pierce).

Experiment [2] has as its system glucocorticoid receptor. The experiment in a line: Glucocorticoid receptor levels in human PBMCs, immunoblot (Example 114). The experiment is classed as cell-based. To be noted: human PBMCs, 0, 1, 5, 25, or 100 nM, 16 hours. The protocol: (§2) The whole blood samples from healthy human volunteer and male SD rat were collected and the PBMCs were isolated immediately as follows. 5 ml of whole blood was diluted with an equal volume of sterile 1× PBS. The diluted blood was overlayed carefully into a sterile centrifuge tube without disturbing the bottom layer that containing 5 ml of Ficoll-paque plus density gradient solution. The layered blood was centrifuged at 1500×g for 30 minutes at room temperature. The middle thin layer containing PBMCs was carefully removed, transferred to another sterile centrifuge tube, and washed twice with PBS to remove […]. Isolated rat and human PBMCs were cultured in 10% fetal bovine serum/DMEM.
(§3) The rat and human PBMCs were treated with DMSO (control), Compound 226, Compound 287, or 17-DMAG at concentrations of 0, 1, 5, 25, or 100 nM (in DMSO) for 16 hours. The cells were then collected and rinsed in ice-cold PBS and stored in liquid nitrogen until further analysis.
as §1, with “PBMC” for “PBMC, renal and tumor cell pellets”, “0.1 mmol/L EGTA,” for “0.1. mmol/LEGTA,”, “glucocorticod” for “glucocorticoid”, “(Pierce). The immunoblot analysis was performed to measure the level of total GRs by Quantity One software from Bio-Rad.” for “(Pierce).”

A further experiment addresses T2, GR (human recombinant) (Homo sapiens, UniProt P04150).
T2 construct: purchased Invitrogen P2816
T2 sequence (P04150 1-777): T1 sequence (P04150 1-777)
In words: GR competitive assay, fluorescence polarization with Fluormone GS1. In kind it is binding. To be noted: tested up to 10 uM. The protocol: To determine whether the compounds of the invention bind directly to the glucocorticoid receptor, GR competitive assay was performed using a kit from Invitrogen (Cat #P2816). GR (human recombinant) was added to a fluorescent glucocorticoid (Fluormone™ GS1) ligand with a test compound at various concentrations (a serial dilution of the test compound was done on a 96-well plate) and incubated for 2-4 hours in the dark. […] The shift in polarization value in the presence of a test compound was used to determine relative affinity of test compounds for glucocorticoid receptors. The buffer plus Fluormone™ GS1 and glucocorticoid receptor in the absent of s test compound was used as negative control presenting 0% competition. […] The IC50 was calculated based on the inhibition rate of binding activity of the testing compound.

In experiment [3] the test system is glucocorticoid receptor. In words: Glucocorticoid receptor levels in PBMCs of rats after four days of intravenous dosing, immunoblot. The note with it: for expression of glucocorticoid receptor (GR) in isolated PBMC compared with vehicle: daily intravenously for four days, 17-DMAG 6 mg/kg, Paclitaxel 5 mg/kg, Compound 264 80 mg/kg, Compound 226 50 mg/kg. The experiment is classed as in vivo, Sprague-Dawley (SD) rats. The protocol:
The test compounds were administered daily intravenously via tail vein for four days. […] All rats were sacrificed at the study day 5. About 1-2 mL of blood samples were collected per animal. The blood samples were then pulled together as a group for PBMC isolation.

Experiment [4] deals with glucocorticoid receptor. In words: Glucocorticoid receptor levels in rat PBMCs, immunoblot. To be noted: rat PBMCs, 0, 1, 5, 25, or 100 nM, 16 hours. The experiment is classed as cell-based. The protocol:
as §2, §3
as §1, with “PBMC” for “PBMC, renal and tumor cell pellets”, “0.1 mmol/L EGTA,” for “0.1. mmol/LEGTA,”, “glucocorticod” for “glucocorticoid”, “(Pierce). The immunoblot analysis was performed to measure the level of total GRs by Quantity One software from Bio-Rad.” for “(Pierce).”

The next experiment relates to human PBMCs. In words: Production of inflammatory cytokines in stimulated human PBMCs. To be noted: IFN-γ primed PBMCs stimulated with LPS or SAC, 16-18 hrs. In kind it is cell-based. Here is the method:
Human PBMC were isolated using Ficoll 400 and diatrizoate sodium (density 1.077 g/ml) solution and purified with RosetteSep (StemCell Technologies). The PBMCs were primed with human IFN-γ (800 U/ml, Pierce Biotechnology #R-IFNG-50), seeded at 0.5×10^6/100 μL/well in 96-well U-bottom plate with culture medium (RPMI 1640, 10% FBS, 1% Pen/Strep), and incubated in 37° C. for overnight. […] About 180 ul/well of supernatant was collected and measured using ELISA kit or Bio-plex (Bio-Rad) to determine the levels of cytokine production. The cell survival was determined using Cell Counting Kit-8 (Dojindo Molecular Technologies, Inc.). […]

pIC50: −log10 of the molar value. Entries after “also recorded” stand apart in the source; their conditions may differ.

In the case of `CC(C)c1cc(-c2nnc(O)n2-c2ccc3c(ccn3C)c2)c(O)cc1O` [Compound 226, 3-(2,4-dihydroxy-5-isopropyl-phenyl)-4-(1-methyl-indol-5-yl)-5-hydroxy-[1,2,4]triazole], the “displacement of tritium labeled dexamethason” value on glucocorticoid receptors is on record as “did not displace the tritium labeled dexamethason”. The “suppression of glucocorticoid receptors, cancer cells compared with normal cells” value with glucocorticoid receptor [1] was “more pronounced in cancer cell than in normal cells”. Besides, the “expression of glucocorticoid receptors” value is listed as “dose dependent decrease” in the experiment on glucocorticoid receptor [1] (HeLa cells, 0, 5, 25, or 100 nM, 16 hrs); “dose dependent decrease” in the experiment on glucocorticoid receptor [1] (Kasumi-1 AML cancer cells, 0, 5, 25, or 100 nM, 16 hrs); “dose dependent decrease” in the experiment with glucocorticoid receptor [1] (MV-4-11 AML cancer cells, 0, 5, 25, or 100 nM, 16 hrs); “suppress the expression of glucocorticoid receptors” in the experiment with glucocorticoid receptor [1] (cancer cells as well as normal PBMCs and renal cells); “dose dependent decrease” in the experiment on glucocorticoid receptor [1] (human PBMCs, 0, 5, 25, or 100 nM, 16 hrs); “dose dependent decrease” in the experiment on glucocorticoid receptor [1] (human renal cells, 0, 5, 25, or 100 nM, 16 hrs). Moreover, the “expression of glucocorticoid receptors” value in the experiment with glucocorticoid receptor [2] and in the experiment on glucocorticoid receptor [4] was “dose dependent decrease; also recorded: decreased the expression of glucocorticoid receptor in a dose dependent manner” throughout. Also, the pIC50 at GR (human recombinant) is below 5.00. Besides, the “size of the decrease of GR expression compared with the other treatments” value in the experiment on glucocorticoid receptor [3] (50 mg/kg daily intravenously for four days) was “most significant”. Besides, the “expression of glucocorticoid receptor (GR) in isolated PBMC compared with vehicle” value in the experiment with glucocorticoid receptor [3] is on record as “decreased”. Besides, the “inhibition of the production of proinflammatory cytokines” value with human PBMCs was “more broadly inhibits the production of proinflammatory cytokines than dexamethasone or 17-DMAG”.

Regarding `CCCN(C)c1cc(-n2c(S)nnc2-c2cc(C(C)C)c(O)cc2O)ccc1OC` [Compound 264], on GR (human recombinant), the pIC50 is below 5.00. Besides, the “expression of glucocorticoid receptor (GR) in isolated PBMC compared with vehicle” value in the experiment with glucocorticoid receptor [3] is “decreased”.
